The values below are quoted from earlier work in EP3305282A2, “COMPOSITION OF PRANLUKAST-CONTAINING SOLID PREPARATION WITH IMPROVED BIOAVAILABILITY AND METHOD FOR PREPARING SAME” (Sama Pharm Co., Ltd., priority 2015, dated 2016).

For the data set the following is noted: pranlukast drug substance, BCS Class II.

For `O=C(Nc1cccc2c(=O)cc(-c3nnn[nH]3)oc12)c1ccc(OCCCCc2ccccc2)cc1` [Pranlukast, 4-oxo-8-[4-(4-phenylbutoxy)benzoylamino]-2-(tetrazol-5-yl)-4H-1-benzopyran hemihydrate], the solubility is 1.2 µg/mL.

The term solubility denotes the concentration that dissolves in the medium under given conditions.
